Calls of active or inactive are those of the source. The calls are words filed in the database; no cut-off is given here.
Tests used:
MDA-MB-231 [1] = test: Cytotoxicity against human MDA-MB-231 cells assessed as inhibition of cell growth by MTT assay; type: functional, cell-based
[2] = Inhibition of full-length HuR-ARE fluorescein-labeled Msi1 mRNA binding (unknown origin) incubated for 2 hrs by fluorescence polarization assay; design: species or system Homo sapiens
MDA-MB-231 [3] = test: Antitumor activity against human MDA-MB-231 cells xenografted iv dosed athymic NCr-nu/nu mouse assessed as reduction in tumor size administered 3 times a week for 3 weeks; type: functional, organism-based
[4] = Inhibition of HuR-ARE fluorescein-labeled Msi1 mRNA binding (unknown origin) by fluorescence polarization assay; design: species or system Homo sapiens
[5] = biological target: ELAV-like protein 1 (Homo sapiens) (UniProt Q15717); test: Thermal stabilization of HuR in human MDA-MB-231 cells at 20 uM at 42 to 54 degreeC incubated for 1 hr by western blot based cellular thermal shift assay; type: cell-based
Sequence of ELAV-like protein 1 (Homo sapiens) (Q15717 whole entry): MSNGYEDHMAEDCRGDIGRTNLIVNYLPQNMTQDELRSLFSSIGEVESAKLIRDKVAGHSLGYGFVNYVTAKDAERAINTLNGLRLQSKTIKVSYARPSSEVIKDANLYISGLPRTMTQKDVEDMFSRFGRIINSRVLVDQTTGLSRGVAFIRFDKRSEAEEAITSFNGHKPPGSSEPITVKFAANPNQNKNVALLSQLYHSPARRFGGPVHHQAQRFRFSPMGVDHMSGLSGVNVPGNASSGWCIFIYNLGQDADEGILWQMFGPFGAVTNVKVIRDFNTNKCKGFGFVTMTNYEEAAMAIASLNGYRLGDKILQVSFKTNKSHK

MDA-MB-231 [6] = test: Inhibition of HuR-Bcl-2 mRNA binding in human MDA-MB-231 cells at 10 uM incubated for 6 hrs by RNP immunoprecipitation assay; type: cell-based
MDA-MB-231 [7] = test: Inhibition of HuR-Msi2 mRNA binding in human MDA-MB-231 cells at 10 uM incubated for 6 hrs by RNP immunoprecipitation assay; type: cell-based
MDA-MB-231 [8] = test: Inhibition of HuR-XIAP mRNA binding in human MDA-MB-231 cells at 10 uM incubated for 6 hrs by RNP immunoprecipitation assay; type: cell-based
MDA-MB-231 [9] = test: Inhibition of cell invasion of human MDA-MB-231 cells at 10 uM incubated for 24 hrs by crystal violet staining based analysis; type: functional
MDA-MB-231 [10] = test: Inhibition of HuR-TGFB2 mRNA binding in human MDA-MB-231 cells assessed as half life of TGFB2 in presence of actinomycin D (reference value: 7.202 hrs); type: cell-based
MDA-MB-231 [11] = test: Inhibition of HuR-THBS1 mRNA binding in human MDA-MB-231 cells assessed as half life of THBS1 in presence of actinomycin D (reference value: 10.46 hrs); type: cell-based
MDA-MB-231 [12] = test: Cytotoxicity against HuR knockout 1 human MDA-MB-231 cells assessed as inhibition of cell growth by MTT assay (reference value: 1.491 uM); type: functional, cell-based
MDA-MB-231 [13] = test: Cytotoxicity against HuR knockout 2 human MDA-MB-231 cells assessed as inhibition of cell growth by MTT assay (reference value: 1.491 uM); type: functional, cell-based
[14] = biological target: ELAV-like protein 1 (Homo sapiens) (UniProt Q15717); test: Thermal stabilization of HuR in human MDA-MB-231 cells at 10 uM at 42 to 54 degreeC incubated for 1 hr by western blot based cellular thermal shift assay; type: cell-based
MDA-MB-231 [15] = test: Inhibition of HuR-Bcl-2 mRNA binding in human MDA-MB-231 cells at 5 uM incubated for 6 hrs by RNP immunoprecipitation assay; type: cell-based
MDA-MB-231 [16] = test: Inhibition of HuR-Msi2 mRNA binding in human MDA-MB-231 cells at 5 uM incubated for 6 hrs by RNP immunoprecipitation assay; type: cell-based
MDA-MB-231 [17] = test: Inhibition of HuR-XIAP mRNA binding in human MDA-MB-231 cells at 5 uM incubated for 6 hrs by RNP immunoprecipitation assay; type: cell-based
MDA-MB-231 [18] = test: Inhibition of HuR-16-nt biotinylated ARE Msi1 mRNA binding in human MDA-MB-231 cells at 20 uM by Western blotting analysis based pull-down assay; type: cell-based
MDA-MB-231 [19] = test: Inhibition of HuR-16-nt biotinylated ARE Msi1 mRNA binding in human MDA-MB-231 cells at 10 uM by Western blotting analysis based pull-down assay; type: cell-based
MDA-MB-231 [20] = test: Downregulation of Bcl-2 protein expression in human MDA-MB-231 cells incubated for 48 hrs by Western blotting analysis; type: functional, cell-based; conditions: dose 5-10 µM
MDA-MB-231 [21] = test: Downregulation of Msi2 protein expression in human MDA-MB-231 cells incubated for 48 hrs by Western blotting analysis; type: functional, cell-based; conditions: dose 5-10 µM
MDA-MB-231 [22] = test: Downregulation of XIAP protein expression in human MDA-MB-231 cells incubated for 48 hrs by Western blotting analysis; type: functional, cell-based; conditions: dose 5-10 µM
MDA-MB-231 [23] = test: Downregulation of HuR protein expression in human MDA-MB-231 cells at 5 to 10 uM incubated for 48 hrs by Western blotting analysis; type: functional, cell-based; conditions: dose 5-10 µM
MDA-MB-231 [24] = test: Inhibition of cell invasion of human MDA-MB-231 cells at 5 uM incubated for 24 hrs by crystal violet staining based analysis; type: functional

SMILES	IC50 (MDA-MB-231 [1]) [µM]	Ki [2] [µM]	also measured
CCOC(=O)/C=C/c1cc2cc(NC(=O)c3ccc(N(C)C)cc3)ccc2[nH]1	76.3	4.39	–
CC(=O)O[C@@]12CO[C@@H]1C[C@H](O)[C@@]1(C)C(=O)[C@H](O)C3=C(C)[C@@H](OC(=O)[C@H](O)[C@@H](NC(=O)OC(C)(C)C)c4ccccc4)C[C@@](O)([C@@H](OC(=O)c4ccccc4)[C@H]21)C3(C)C	–	–	Activity (MDA-MB-231 [3]): Active
COC(=O)c1cc2cc(NC(=O)c3ccccn3)ccc2s1	> 100	–	–
CC(C)(C)c1ccc(C(=O)Nc2ccc3[nH]c(C(=O)O)cc3c2)cc1	> 100	–	–
CCOC(=O)c1cc2cc(NC(=O)c3ccc(C(C)(C)C)cc3)ccc2[nH]1	25.1	> 20	–
CCOC(=O)/C=C/c1cc2cc(NC(=O)c3ccc(C(C)(C)C)cc3)ccc2s1	57.7	13.3	–
CCOC(=O)c1cc2cc(NS(=O)(=O)c3ccc(C(C)(C)C)cc3)ccc2[nH]1	31.8	> 20	–
CN(C)c1ccc(C(=O)Nc2ccc3[nH]c(C(=O)NO)cc3c2)cc1	11.3	–	–
CCOC(=O)c1cc2cc(NC(=O)c3ccccn3)ccc2[nH]1	> 100	–	–
CC(C)(C)c1ccc(C(=O)Nc2ccc3sc(/C=C/C(=O)O)cc3c2)cc1	72.1	0.97	–
CN(C)c1ccc(C(=O)Nc2ccc3sc(C(=O)O)cc3c2)cc1	> 100	–	–
CC(C)(C)c1ccc(C(=O)Nc2ccc3[nH]c(/C=C/C(=O)O)cc3c2)cc1	> 100	3.35	–
CC(C)(C)c1ccc(S(=O)(=O)Nc2ccc3[nH]c(C(=O)O)cc3c2)cc1	> 100	6.17	–
COC(=O)c1cc2cc(NC(=O)c3ccc(N(C)C)cc3)ccc2s1	> 100	–	–
CC(C)(C)c1ccc(C(=O)Nc2ccc3sc(/C=C/C(=O)NO)cc3c2)cc1	1.33	0.15	IC50 [4]: 0.597 µM; Ki [4]: 0.139 µM
O=C(Nc1ccc2[nH]c(C(=O)NO)cc2c1)c1ccccn1	75.3	–	Activity [5]: inactive; inhibition (MDA-MB-231 [6]): inactive; inhibition (MDA-MB-231 [7]): inactive; inhibition (MDA-MB-231 [8]): inactive; inhibition (MDA-MB-231 [9]): inactive; T1/2 (MDA-MB-231 [10]): 7.09 h; T1/2 (MDA-MB-231 [11]): 9.03 h
CCOC(=O)c1cc2cc(NC(=O)c3ccc(N(C)C)cc3)ccc2[nH]1	> 100	–	–
O=C(Nc1ccc2[nH]c(C(=O)O)cc2c1)c1ccccn1	> 100	–	–
CC(C)(C)c1ccc(C(=O)Nc2ccc3[nH]c(/C=C/C(=O)NO)cc3c2)cc1	2.24	0.34	–
CC(C)(C)c1ccc(C(=O)Nc2ccc3sc(C(=O)O)cc3c2)cc1	90.5	5.08	–

SMILES	IC50 (MDA-MB-231 [1]) [µM]	Ki [2] [µM]	also measured
CN(C)c1ccc(C(=O)Nc2ccc3[nH]c(/C=C/C(=O)NO)cc3c2)cc1	8.91	0.69	–
CN(C)c1ccc(C(=O)Nc2ccc3[nH]c(C(=O)O)cc3c2)cc1	99.8	–	–
CC(C)(C)c1ccc(C(=O)O)cc1	–	–	IC50 [2]: > 200 µM
COC(=O)c1cc2cc(NC(=O)c3ccc(C(C)(C)C)cc3)ccc2s1	5.28	> 20	–
CC(C)(C)c1ccc(C(=O)Nc2ccc3sc(C(=O)NO)cc3c2)cc1	3.71	0.44	–
CN(C)c1ccc(C(=O)Nc2ccc3[nH]c(/C=C/C(=O)O)cc3c2)cc1	> 100	7.76	–
O=C(O)c1cc2cc([N+](=O)[O-])ccc2[nH]1	–	6.95	IC50 [2]: 29.7 µM
CCOC(=O)/C=C/c1cc2cc(NC(=O)c3ccc(C(C)(C)C)cc3)ccc2[nH]1	1.13	> 20	–
CC(C)(C)c1ccc(S(=O)(=O)Nc2ccc3[nH]c(C(=O)NO)cc3c2)cc1	32	1.75	–
O=C(Nc1ccc2sc(C(=O)NO)cc2c1)c1ccccn1	4.43	–	–
O=C(Nc1ccc2sc(C(=O)O)cc2c1)c1ccccn1	> 100	–	–
CC(C)(C)c1ccc(S(=O)(=O)Nc2ccc3sc(/C=C/C(=O)NO)cc3c2)cc1	–	–	IC50 [4]: 3.34 µM; Ki [4]: 0.783 µM
CN(C)c1ccc(C(=O)Nc2ccc3sc(C(=O)NO)cc3c2)cc1	1.31	–	IC50 (MDA-MB-231 [12]): 3.66 µM; IC50 (MDA-MB-231 [13]): 3.01 µM; Activity [14]: Active; inhibition (MDA-MB-231 [15]): Active; inhibition (MDA-MB-231 [16]): Active; inhibition (MDA-MB-231 [17]): Active; inhibition (MDA-MB-231 [18]): inactive; inhibition (MDA-MB-231 [19]): Active; Activity (MDA-MB-231 [20]): Dose-Dependent Effect; Activity (MDA-MB-231 [21]): Dose-Dependent Effect; Activity (MDA-MB-231 [22]): Dose-Dependent Effect; Activity (MDA-MB-231 [23]): inactive; inhibition (MDA-MB-231 [24]): Active
CCOC(=O)CCc1cc2cc(NC(=O)c3ccc(C(C)(C)C)cc3)ccc2s1	6.52	11.8	–
CC(C)(C)c1ccc(S(=O)(=O)Nc2ccc3sc(C(=O)O)cc3c2)cc1	> 100	2.42	–
COC(=O)c1cc2cc(NS(=O)(=O)c3ccc(C(C)(C)C)cc3)ccc2s1	27.4	15.4	–
CC(C)(C)c1ccc(S(=O)(=O)Nc2ccc3sc(C(=O)NO)cc3c2)cc1	12.9	3.24	–
CC(C)(C)c1ccc(C(=O)Nc2ccc3sc(CCC(=O)O)cc3c2)cc1	19.8	3.83	–
CC(C)(C)c1ccc(C(=O)Nc2ccc3sc(CCC(=O)NO)cc3c2)cc1	3.49	0.83	–

— ChEMBL document CHEMBL5380779, “Small Molecules Targeting the RNA-Binding Protein HuR Inhibit Tumor Growth in Xenografts” (J Med Chem, 2023)
